From US9212209B2, “Screening methods for spinal muscular atrophy” (Indiana University Research and Technology Corporation, priority 2012, dated 2015) come the findings set out here.

Data set [1] is described as follows: Liver microsome stability. The following applies: for half-life: mouse, liver microsomes. A general note: Microsomes from liver hold many membrane-bound enzymes, among them those of drug oxidation.
Data set [2] in a line: Solubility in PBS / aqueous solution. The class given is physicochemical.
In the next data set the test system is SMN2-luciferase reporter. The data set can be described thus: SMN2-luciferase reporter assay (clonal HEK-293 SMN2-luc cells). The class given is cell-based, human. Details: % activation: concentration or dose not given beside the values.
For another data set, the system named is SMN protein. The experiment in a line: SMN protein in tissues of SMA mice after intracerebroventricular injection. Conditions: ICV daily for 3 days, harvested on day 3, words. It is filed as in vivo, mouse. How it is done: Pilot experiments with the LDN compounds were initiated in SMA mice. Compounds LDN-75654 and LDN-76070 were tested in SMA mice to evaluate SMN-inducing activity in vivo. The compounds were injected intracerebroventricular (ICV) into SMA mice. Injections were performed daily for 3 days, and animals were harvested on day 3. LDN-76070 increased SMN protein in muscle and liver. […] Without the intention to be limited by theory, it is proposed that this may be due to the instability observed in the liver microsomal stability assay.

Data set [3] deals with SMN-luciferase transcripts. The data set can be described thus: qRT-PCR of SMN-luciferase transcripts in SMN2-luc cells. The class given is cell-based, human. Conditions: 24 hours, relative to DMSO, normalized to GAPDH, aclarubicin at 300 nM, words. How it is done:
Compounds were tested at three concentrations that display maximal activity in the luciferase assay. Cells were treated as described above for the luciferase assay. Cells were harvested by trypsinization, neutralized with trypsin inhibitor, and washed. RNA was isolated from the cells using TRIZOL Reagent (Invitrogen 15596-026). cDNA was generated using the IMPROM-II Reverse Transcription System (Promega A3801).
The forward primer pair recognizes the exon 5-6 junction, which includes a restriction site that was engineered into the reporter and will exclude amplification of endogenous SMN mRNA. The reverse primers recognize either exon 7 or luciferase for detection of full-length or total SMN-luciferase transcripts respectively. For a reference control, cDNA from the housekeeping gene glyceraldehyde-3-phosphate dehydrogenase (GAPDH) was amplified. The primers used include SMN exon5-forward ([…]) (SEQ ID NO: 3), luciferase-reverse ([…]) (SEQ ID NO: 4), exon7-reverse ([…]) (SEQ ID NO: 5), GAPDH-reverse (G3A) ([…]) (SEQ ID NO: 6) and GAPDH-forward (G3S) ([…]) (SEQ ID NO: 7). qPCR was performed as described in the protocol for iQ SYBRGREEN SUPERMIX (Biorad 170-8882) using an EPPENDORF Mastercycler ep realplex^4 Thermo Cycler. Reactions were incubated for a 10 minute, 94° C. hot start followed by 45 cycles of the following: 94° C. for 45 second, 60° C. for 15 seconds, 72° C. for 45 seconds. Melting curves for each reaction were obtained. Each sample was assayed in triplicate and every plate contained a 5-point cDNA dilution course to calculate amplification efficiency for each primer pair. The Pfaffl method was used to determine the change in transcript levels relative to the DMSO and normalized to GAPDH (Pfaffl, M. W., “A new mathematical model for relative quantification in real-time RT-PCR,” Nucleic Acids Res 2001, 29(9), 3e45).
Based on the new reporter design, it was predicted that this screen could detect increased SMN-luciferase protein levels caused by compounds that stimulate SMN2 transcription, exon 7 inclusion, or by increasing the half-life of the SMN mRNA or protein. Quantitative reverse transcriptase PCR (qRT-PCR) was used to analyze SMN-luciferase mRNAs. All assays used RNA from control and compound-treated SMN2-luc cells and primers pairs were chosen to amplify only the SMN-luciferase derived transcripts (FIG. 4A). A pair of primers were used that specifically detects both full-length (exon 7 included) and Δ7 (exon 7 excluded) SMN-luciferase transcripts (primers 1 and 3). To measure changes in exon 7 splicing efficiency, a primer pair was used that detects only the full-length (exon 7 included) SMN-luciferase transcript (primers 1 and 2).
For each sample, the percent increase in the amount of total SMN-luciferase transcripts (gray bar) and exon 7 included full-length SMN-luciferase transcripts (white bar) was plotted (FIG. 4). Compounds that increase transcription should show increased total SMN-luciferase transcripts (gray bar) with a proportional increase for exon 7 included transcripts (white bar), assuming that proper splicing of exon 7 is not rate limiting. Compounds that stimulate exon 7 inclusion should increase the amount of exon 7 included full-length transcript (white bar) detected with little to no change in the expression of total SMN-luciferase transcripts (gray bar). In these experiments, cells were treated with compound, harvested, and each cell pellet was divided for isolation of RNA and to assay luciferase activity. Each qRT-PCR sample was normalized to the housekeeping gene glyceraldehyde-3-phosphate dehydrogenase (GAPDH). The Pfaffl method was used to calculate the change in the amount of total SMN mRNA and determine whether compound treatments increased SMN transcripts.
(In general: In qPCR the cycle at which signal appears reflects the starting amount.)

Data set [4] deals with SMN-luciferase fusion protein. The data set can be described thus: Immunoblot of SMN-luciferase fusion protein in SMN1-luc cells. The class given is cell-based, human. The following applies: SMN1-luc cell line, increasing SAHA; words. How it is done: For analysis of SMN-luciferase fusion, cells were treated with compound or DMSO for 25 hours. Cells were lysed with protein lysis buffer (100 mM Tris pH 8.0, 100 mM NaCl, 0.1% NP-40, 8.0 M urea, and protease inhibitor). Each sample was separated on a 10% SDS-page gel, transferred to Immobilon-P membrane (MILLIPORE IVPH00010) and blotted for the SMN-luciferase fusion with anti-luciferase antibody (PROMEGA, #G7541), SMN with the 4f11 mouse monoclonal antibody (described in Mattis et al., “Detection of human survival motor neuron (SMN) protein in mice containing the SMN2 transgene: Applicability to preclinical therapy development for spinal muscular atrophy” J. Neurosci Methods, 2008), HA-tag with 12CA5 monoclonal, actin (Sigma A2066) or a-tubulin (DM1a; Sigma T6199).
Quantification of protein was performed with FUJIFILM LAS-4000 Multifunctional Imaging System. The signal intensity was measured for each band on an immunoblot, normalized to the loading control, and the fold increase was determined in relation to the appropriate DMSO treated control.
For orientation: Immunoblotting shows a protein as a band on a membrane.

Like-named read-outs stand apart in the source and are kept apart here.

The half-life is the time needed for the level to fall by half in the phase considered. The solubility is how much of the substance goes into solution per volume. The term EC50 denotes the concentration giving half of the maximal effect. In data set [1] (Table 8), `CC(C)c1cc(C(=O)Nc2ccc(F)c(Cl)c2)no1` [LDN-75654] yielded a Stabilityin liver microsomes of 15 min. Besides, the Stability in data set [1] (Table 9) was 15 min. Further, the half-life was found to be 15 min in data set [1] (T1/2 in liver microsomes, Table 7) and 14 min in data set [1] (t1/2 in mouse liver microsomes, mouse liver microsomes). For the same compound, the solubility in data set [2] (PBS, aqueous buffer, read-out: Maximal solubility in PBS) is over 2000 µM; in data set [2] (aqueous solution, Table 8, grades, read-out: Solubility in aqueous solution), over 2000 µM. Also, the EC50 in the data set with SMN2-luciferase reporter (Homo sapiens, HEK293, Table 7, read-out: EC50) turned out to be 2 µM; with SMN2-luciferase reporter (Homo sapiens, HEK293, reporter assay, Table 6, read-out: Ec50), 1.8 µM. Besides, the Emax with SMN2-luciferase reporter (Homo sapiens, HEK293, reporter assay, Table 6, read-out: Max % Activity) was 274%. Also, the Maximum % activation with SMN2-luciferase reporter (Table 7) is 242.4 ± 35.1%. For the same compound, in the data set on SMN2-luciferase reporter (reporter assay, Table 5), the “% activation” value came to 106%. Also, in the data set with SMN2-luciferase reporter (reporter assay, Table 6), the Active result is “Yes”. In addition, the “SMN protein levels in these animals” value in the data set with SMN protein is given as “did not increase”.

`O=C(CCCCCCC(=O)Nc1ccccc1)NO` [SAHA, suberoylanilide hydroxamic acid]: in data set [3], the “exon 7 included full-length SMN-luciferase transcripts” value is recorded as “increased” and the “total SMN-luciferase transcripts” value is reported as “increased”. In addition, the “increase in SMN-luciferase protein” value in data set [4] is listed as “moderate increase”.
